Assay results taken from patent US9783586B2, “Inhibitors of the linear ubiquitin chain assembly complex (LUBAC) and related methods” (The United States of America, as represented by the …, priority 2013, dated 2017).
Positions of bridges follow the written chain, without caps; N, C: chain ends. Non-standard residues stand in square brackets, D forms with d. S5 = C=CCCC[C@](C)(N)C(=O)O; βAla = NCCC(=O)O

Key:
Type in all cases: cell-based
[1] = tested on: GCB DLBCL cell lines; experiment: MTS cell viability assay, GCB DLBCL; settings: 5 μM or 20 μM, four days (FIGS. 7A-7D)
Description: (§1) ABC and GCB DLBCL cell lines were treated with RNF31 stapled peptides of Table 2 at concentrations of 5 μM or 20 μM for four days. Cell viability was determined using the following MTS assay. Cells were plated in triplicate at a density of 15,000 cells per well in 96-well plates. Cell viability after indicated treatments was assayed by adding 3-(4,5-dimethylthiazol-2-yl)-5-(3-carboxymethoxyphenyl)-2-(4-sulphophenyl)-2H tetrazolium and an electron coupling reagent (phenazine methosulphate from Promega, Madison, Wis.), incubated for 3 hours and measured by the amount of 490 nm absorbance using a 96-well plate reader. The background was subtracted using a media only control. The results of these MTS assays done in triplicate are shown in FIGS. 7A-7D (error bars indicate the SEM), and cell viability is expressed as the fraction of cells remaining after four days treatment, relative to the initial number of cells at the start of treatment (time 0). The results of MTS cell viability assay indicate that amino-terminal cross-linked peptides RNF31-N (SEQ ID NO: 11) and RNF31-NC (SEQ ID NO: 12) were toxic to ABC DLBCL cell lines but had little effect on GCB DLBCL cell lines tested.

[2] = tested on: ABC DLBCL cell lines; experiment: MTS cell viability assay, ABC DLBCL
Description: as §1

[3] = tested on: NF-κB; experiment: NF-κB luciferase reporter assay; settings: for Relative NF-κB-luciferase reporter activity: HBL1 ABC DLBCL cells, 5 μM or 20 μM, 2 days, relative to DMSO (FIG. 4)
Description: A third experiment was done using a different reporter system for NF-κB activity. HBL1 and TMD8 ABC DLBCL lines cell lines were created with an NF-κB transcriptional reporter by transduction with lentiviral particles containing an inducible NF-κB-responsive luciferase reporter construct (SA Biosciences, Valencia, Calif.) and selected with puromycin. Luciferase activity was measured using the DUAL-LUCIFERASE™ Reporter Assay System (Promega) on a Microtiter Plate Luminometer (Dyn-Ex Technologies, Chantilly, Va.). The transduced HBL and TMD8 cell lines were then transfected with constructs that inducibly express control (SC4) or RNF31 shRNAs described above. Expression of shRNAs was induced using doxycyline, and the luciferase reporter activity in shRNF31 expression cells was measured and normalized relative to control (SC4). Cells were also treated with the specific IKKβ inhibitor (MLN120B) as a positive control. Experiments were done in triplicate, and results are shown in FIG. 2C (error bars indicate SEM).
The ability of these peptides to inhibit NF-κB activity in ABC DLBCL was determined using the NF-κB luciferase reporter assay described above. Negative control cells were treated with dimethyl sulfoxide (DMSO), and positive control cells were treated with Bruton's tyrosine kinase (Btk) inhibitor ibrutinib. […] Cells were treated with peptides at concentrations of 5 μM or 20 μM for 2 days. Relative NF-κB-luciferase reporter activity was normalized and measured relative to control (DMSO-treated) cells. The results of triplicate experiments are shown in FIG. 4 (error bars indicate the SEM).

[4] = target: T1, RBCK1/RNF31 interaction (Homo sapiens, UniProt Q9BYM8); experiment: RBCK1/RNF31 co-immunoprecipitation (LUBAC complex formation) in co-transfected HEK-293 cells; settings: HEK-293 cells, 5 μM or 20 μM, 24 hours, relative to DMSO (FIGS. 5, 6)
T1 construct: expressed in transfected cells; host or cells: HEK-293
T1 sequence (Q9BYM8 1-510): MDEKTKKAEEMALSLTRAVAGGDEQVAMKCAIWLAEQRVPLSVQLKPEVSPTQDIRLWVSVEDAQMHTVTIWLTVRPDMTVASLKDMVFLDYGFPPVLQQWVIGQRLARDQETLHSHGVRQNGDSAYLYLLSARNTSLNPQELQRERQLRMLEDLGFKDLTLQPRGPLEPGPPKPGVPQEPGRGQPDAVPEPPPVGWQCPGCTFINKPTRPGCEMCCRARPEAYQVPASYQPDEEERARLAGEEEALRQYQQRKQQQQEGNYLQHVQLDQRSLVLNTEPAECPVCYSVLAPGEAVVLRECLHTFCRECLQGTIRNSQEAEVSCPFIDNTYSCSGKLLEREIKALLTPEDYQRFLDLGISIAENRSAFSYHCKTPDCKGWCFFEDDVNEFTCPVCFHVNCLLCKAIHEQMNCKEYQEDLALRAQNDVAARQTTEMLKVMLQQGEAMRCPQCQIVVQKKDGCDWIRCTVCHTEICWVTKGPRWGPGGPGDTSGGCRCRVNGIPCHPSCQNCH

[5] = tested on: IκBα; experiment: IκBα-luciferase reporter assay; settings: ABC DLBCL cells, Example 10 (FIG. 8B)
Excerpt: In a second experiment, HBL1 and TMD8 ABC DLBCL lines were engineered to contain an NF-κB-driven luciferase reporter. Vectors expressing an IκBα-luciferase fusion protein were constructed using Photinus luciferase from pGL3 vector (Promega, Madison, Wis.) as the reporter and Renilla luciferase construct from phRL-TK (Promega) was used for normalization. Stable clones were identified that were responsive to […] (see Lam et al, Clin Cancer Res, 11: 28-40 (2005)). After development with the DUAL-GLO luciferase assay system (Promega), the ratio of IκBα-Photinus to Renilla luminescence was normalized to that in untreated or uninduced cultures. The IκBα assay, which relies on the correlation between NF-κB activity and IKKβ kinase activity, was previously described in Lenz et al, Science, 319: 1676-1679 (2008). In brief, IKKβ kinase phosphorylates IκBα, which leads to degradation of IκBα (an inhibitor of NF-κB) and thereby activates NF-κB.
The engineered cells were transfected with control (SC4) or RNF31 shRNAs under the control of a doxycyline promoter as described in Example 2. Expression of shRNA was induced with doxycyline, and relative amounts of NF-κB Luciferase reporter activity was measured and normalized relative to control (SC4) shRNA. As additional controls, the expression of NF-κB Luciferase reporter activity was measured in cells that were not expressing shRNAs and which were either treated with the specific IKKβ inhibitor (“MLM-120B”) or untreated (“No Rx”). Experiments were done in triplicate and the results are shown in FIG. 2B (error bars indicate standard error of the mean (SEM)).

[6] = ABC DLBCL cell lines, 5 μM or 20 μM, four days (FIGS. 7A-7D)

Ac-βAla Ser Arg Xaa Leu Thr Glu Xaa Gln Arg Gln Arg Leu Glu Pro Phe Arg Gln Arg Xaa Trp Asp Ser Xaa-NH2 (Ac-[βAla]SR[S5]LTE[S5]QRQRLEPFRQR[S5]WDS[S5]-NH2; staple 20-24, 4-8; SMILES CC(=O)NCCC(=O)N[C@@H](CO)C(=O)N[C@@H](CCCNC(=N)N)C(=O)N[C@@]1(C)CCCC=CCCC[C@@](C)(C(=O)N[C@@H](CCC(N)=O)C(=O)N[C@@H](CCCNC(=N)N)C(=O)N[C@@H](CCC(N)=O)C(=O)N[C@@H](CCCNC(=N)N)C(=O)N[C@@H](CC(C)C)C(=O)N[C@@H](CCC(=O)O)C(=O)N2CCC[C@H]2C(=O)N[C@@H](Cc2ccccc2)C(=O)N[C@@H](CCCNC(=N)N)C(=O)N[C@@H](CCC(N)=O)C(=O)N[C@@H](CCCNC(=N)N)C(=O)N[C@@]2(C)CCCC=CCCC[C@@](C)(C(N)=O)NC(=O)[C@H](CO)NC(=O)[C@H](CC(=O)O)NC(=O)[C@H](Cc3c[nH]c4ccccc34)NC2=O)NC(=O)[C@H](CCC(=O)O)NC(=O)[C@H]([C@@H](C)O)NC(=O)[C@H](CC(C)C)NC1=O) [RNF31-NC]
Cell viability (MTS) [1]: little effect
Cell viability (MTS) [2, 6]: toxic
Relative NF-κB-luciferase reporter activity [3]: strongly inhibit NF-κB
RBCK1/RNF31 interaction (anti-HA immunoprecipitation, densitometry) [4]: inhibited RBCK1/RNF31 interaction in a dose-dependent fashion

Ac-βAla Ser Arg Ala Leu Thr Glu Leu Gln Arg Gln Arg Leu Glu Pro Phe Arg Gln Arg Leu Trp Asp Ser-NH2 (Ac-[βAla]SRALTELQRQRLEPFRQRLWDS-NH2; SMILES CC(=O)NCCC(=O)N[C@@H](CO)C(=O)N[C@@H](CCCNC(=N)N)C(=O)N[C@@H](C)C(=O)N[C@@H](CC(C)C)C(=O)N[C@H](C(=O)N[C@@H](CCC(=O)O)C(=O)N[C@@H](CC(C)C)C(=O)N[C@@H](CCC(N)=O)C(=O)N[C@@H](CCCNC(=N)N)C(=O)N[C@@H](CCC(N)=O)C(=O)N[C@@H](CCCNC(=N)N)C(=O)N[C@@H](CC(C)C)C(=O)N[C@@H](CCC(=O)O)C(=O)N1CCC[C@H]1C(=O)N[C@@H](Cc1ccccc1)C(=O)N[C@@H](CCCNC(=N)N)C(=O)N[C@@H](CCC(N)=O)C(=O)N[C@@H](CCCNC(=N)N)C(=O)N[C@@H](CC(C)C)C(=O)N[C@@H](Cc1c[nH]c2ccccc12)C(=O)N[C@@H](CC(=O)O)C(=O)N[C@@H](CO)C(N)=O)[C@@H](C)O) [RNF31-wt]
Cell viability (MTS) ([2]; ABC DLBCL cells, Example 10 (FIG. 8C)): decreased cell viability
NF-κB activity ([3]; ABC DLBCL cells, Example 10 (FIG. 8A)): inhibited NF-κB activity
Relative NF-κB-luciferase reporter activity [3]: less of an effect
RBCK1/RNF31 interaction (anti-HA immunoprecipitation, densitometry) [4]: little if any effect
IκBα activity (IκBα-reporter) [5]: decreased IκBα activity

Ac-βAla Ser Arg Xaa Leu Thr Glu Xaa Gln Arg Gln Arg Leu Glu Pro Phe Arg Gln Arg Leu Trp Asp Ser-NH2 (Ac-[βAla]SR[S5]LTE[S5]QRQRLEPFRQRLWDS-NH2; staple 4-8; SMILES CC(=O)NCCC(=O)N[C@@H](CO)C(=O)N[C@@H](CCCNC(=N)N)C(=O)N[C@@]1(C)CCCC=CCCC[C@@](C)(C(=O)N[C@@H](CCC(N)=O)C(=O)N[C@@H](CCCNC(=N)N)C(=O)N[C@@H](CCC(N)=O)C(=O)N[C@@H](CCCNC(=N)N)C(=O)N[C@@H](CC(C)C)C(=O)N[C@@H](CCC(=O)O)C(=O)N2CCC[C@H]2C(=O)N[C@@H](Cc2ccccc2)C(=O)N[C@@H](CCCNC(=N)N)C(=O)N[C@@H](CCC(N)=O)C(=O)N[C@@H](CCCNC(=N)N)C(=O)N[C@@H](CC(C)C)C(=O)N[C@@H](Cc2c[nH]c3ccccc23)C(=O)N[C@@H](CC(=O)O)C(=O)N[C@@H](CO)C(N)=O)NC(=O)[C@H](CCC(=O)O)NC(=O)[C@H]([C@@H](C)O)NC(=O)[C@H](CC(C)C)NC1=O) [RNF31-N]
Cell viability (MTS) [1]: little effect
Cell viability (MTS) [2, 6]: toxic
Relative NF-κB-luciferase reporter activity [3]: strongly inhibit NF-κB
RBCK1/RNF31 interaction (anti-HA immunoprecipitation, densitometry) [4]: inhibited RBCK1/RNF31 interaction in a dose-dependent fashion
